Key:
α-glucosidase = α-glucosidase (Saccharomyces cerevisiae, UniProt P53341); experiment: In vitro α-glucosidase inhibition assay (p-nitrophenyl glucopyranoside substrate); format: biochemical; conditions: for inhibition at 500 µM: test compound 0.5mM, read-out: Percent Inhibition (0.5mM)
Description: The reaction was initiated by the addition of 10 μL of 0.5mM substrate(p-nitrophenyl glucopyranoside, Sigma Inc.). […] All experiments were carried out in triplicates (mean ± SEM, n=3).

α-glucosidase, sequence (P53341 whole entry): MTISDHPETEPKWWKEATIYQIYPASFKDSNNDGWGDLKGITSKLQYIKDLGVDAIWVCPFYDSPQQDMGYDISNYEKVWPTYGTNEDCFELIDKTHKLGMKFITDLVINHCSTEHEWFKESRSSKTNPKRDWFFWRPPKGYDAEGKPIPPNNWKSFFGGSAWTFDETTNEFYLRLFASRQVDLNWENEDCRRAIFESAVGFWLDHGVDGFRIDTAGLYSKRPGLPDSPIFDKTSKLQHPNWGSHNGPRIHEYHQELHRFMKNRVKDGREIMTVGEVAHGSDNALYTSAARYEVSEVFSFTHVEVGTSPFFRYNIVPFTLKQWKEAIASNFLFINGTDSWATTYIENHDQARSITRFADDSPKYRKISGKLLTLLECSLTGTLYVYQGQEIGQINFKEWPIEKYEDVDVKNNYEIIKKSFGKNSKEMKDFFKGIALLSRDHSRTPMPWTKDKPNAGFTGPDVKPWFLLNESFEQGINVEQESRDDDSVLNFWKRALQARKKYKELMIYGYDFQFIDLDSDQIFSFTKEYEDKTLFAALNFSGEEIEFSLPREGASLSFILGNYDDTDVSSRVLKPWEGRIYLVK

| SMILES | inhibition at 500 µM (α-glucosidase) [%] | melting point [°C] | α-glucosidase inhibitory activity (in words) (α-glucosidase) |
| --- | --- | --- | --- |
| O=C(Cc1ccc(O)c(O)c1)NN=Cc1ccccc1O [Compound 1, (3,4-dihydroxyphenyl)-N'-(2-hydroxybenzylidene)acetohydrazide] | 86.3 | 164 | – |
| O=C(Cc1ccc(O)c(O)c1)NN=Cc1ccc(O)cc1 [Compound 2, 2-(3,4-dihydroxyphenyl)-N'-(4-hydroxybenzylidene)acetohydrazide] | 90.4 | 210 | – |
| O=C(Cc1ccc(O)c(O)c1)NN=Cc1ccc(O)c(O)c1 [Compound 3, N'-(3,4-dihydroxybenzylidene)-2-(3,4-dihydroxyphenyl)acetohydrazide] | 91.3 | 212 | – |
| O=C(Cc1ccc(O)c(O)c1)NN=Cc1ccc(O)cc1O [Compound 4, N'-(2,4-dihydroxybenzylidene)-2-(3,4-dihydroxyphenyl)acetohydrazide] | 95.7 | 198 | – |
| O=C(Cc1ccc(O)c(O)c1)NN=Cc1ccc(O)c(O)c1O [Compound 5, 2-(3,4-dihydroxyphenyl)-N'-(2,3,4-trihydroxybenzylidene)acetohydrazide] | 96.1 | 212 | – |
| COc1cc(C=NNC(=O)Cc2ccc(O)c(O)c2)ccc1O [Compound 6, 2-(3,4-dihydroxyphenyl)-N'-(4-hydroxy-3-methoxybenzylidene)acetohydrazide] | 86.4 | 189 | – |
| COc1cccc(C=NNC(=O)Cc2ccc(O)c(O)c2)c1O [Compound 7, 2-(3,4-dihydroxyphenyl)-N'-(2-hydroxy-3-methoxybenzylidene)acetohydrazide] | 91.7 | 204 | – |
| COc1ccc(C=NNC(=O)Cc2ccc(O)c(O)c2)c(O)c1 [Compound 8, 2-(3,4-dihydroxyphenyl)-N'-(2-hydroxy-4-methoxybenzylidene)acetohydrazide] | 91 | 206 | – |
| CCOc1cc(C=NNC(=O)Cc2ccc(O)c(O)c2)ccc1O [Compound 9, 2-(3,4-dihydroxyphenyl)-N'-(3-ethoxy-4-hydroxybenzylidene)acetohydrazide] | 83.3 | 184 | – |
| CCOc1ccc(C=NNC(=O)Cc2ccc(O)c(O)c2)c(O)c1 [Compound 10, 2-(3,4-dihydroxyphenyl)-N'-(4-ethoxy-2-hydroxybenzylidene)acetohydrazide] | 81.9 | 164 | – |
| Cc1ccc(C=NNC(=O)Cc2ccc(O)c(O)c2)cc1O [Compound 11, 2-(3,4-dihydroxyphenyl)-N'-(3-hydroxy-4-methylbenzylidene)acetohydrazide] | 77.5 | 210 | – |
| COc1ccccc1C=NNC(=O)Cc1ccc(O)c(O)c1 [Compound 12, 2-(3,4-dihydroxyphenyl)-N'-(2-methoxybenzylidene)acetohydrazide] | 96.7 | 190 to 193 | – |
| COc1ccc(C=NNC(=O)Cc2ccc(O)c(O)c2)cc1 [Compound 13, 2-(3,4-dihydroxyphenyl)-N'-(4-methoxybenzylidene)acetohydrazide] | 95.2 | 198 | – |
| COc1ccc(C=NNC(=O)Cc2ccc(O)c(O)c2)cc1OC [Compound 14, 2-(3,4-dihydroxyphenyl)-N'-(3,4-dimethoxybenzylidene)acetohydrazide] | 92.2 | 210 | – |
| CN(C)c1ccc(C=NNC(=O)Cc2ccc(O)c(O)c2)cc1 [Compound 15, (3,4-dihydroxyphenyl)-N'-(4-(dimethylamino)benzylidene)acetohydrazide] | 92.8 | 203 | – |
| Cc1ccc(C=NNC(=O)Cc2ccc(O)c(O)c2)cc1 [Compound 16, 2-(3,4-dihydroxyphenyl)-N'-(4-methylbenzylidene)acetohydrazide] | 84.1 | 201 | – |
| O=C(Cc1ccc(O)c(O)c1)NN=Cc1cccc2ccccc12 [Compound 17, 2-(3,4-dihydroxyphenyl)-N'-(naphthalen-1-ylmethylene)acetohydrazide] | 72 | 210 | – |
| O=C(Cc1ccc(O)c(O)c1)NN=Cc1ccccc1Cl [Compound 18, N'-(2-chlorobenzylidene)-2-(3,4-dihydroxyphenyl)acetohydrazide] | 85.3 | 164 | – |
| O=C(Cc1ccc(O)c(O)c1)NN=Cc1ccc(Cl)cc1 [Compound 19, N'-(4-chlorobenzylidene)-2-(3,4-dihydroxyphenyl)acetohydrazide] | 79.4 | 198 | – |
| O=C(Cc1ccc(O)c(O)c1)NN=Cc1cccc(Cl)c1 [Compound 20, N'-(3-chlorobenzylidene)-2-(3,4-dihydroxyphenyl)acetohydrazide] | 84.4 | 196 | – |
| O=C(Cc1ccc(O)c(O)c1)NN=Cc1c(Cl)cccc1Cl [Compound 22, N'-(2,6-dichlorobenzylidene)-2-(3,4-dihydroxyphenyl)acetohydrazide] | – | 262 | no inhibitory activity |
| O=C(Cc1ccc(O)c(O)c1)NN=Cc1ccc([N+](=O)[O-])cc1 [Compound 23, 2-(3,4-dihydroxyphenyl)-N'-(4-nitrobenzylidene)acetohydrazide] | 80.9 | 201 | – |
| O=C(Cc1ccc(O)c(O)c1)NN=Cc1ccccc1[N+](=O)[O-] [Compound 24, 2-(3,4-dihydroxyphenyl)-N'-(2-nitrobenzylidene)acetohydrazide] | 82.7 | 204 | – |
| O=C(Cc1ccc(O)c(O)c1)NN=Cc1cccc([N+](=O)[O-])c1 [Compound 25, 2-(3,4-dihydroxyphenyl)-N'-(3-nitrobenzylidene)acetohydrazide] | 78.2 | 206 | – |
| O=Cc1ccc(C=NNC(=O)Cc2ccc(O)c(O)c2)cc1 [Compound 26, 2-(3,4-dihydroxyphenyl)-N'-(4-formylbenzylidene)acetohydrazide] | – | 204 | – |
| O=C(Cc1ccc(O)c(O)c1)NN=Cc1ccco1 [Compound 27, 2-(3,4-dihydroxyphenyl)-N'-(furan-2-ylmethylene)acetohydrazide] | – | 156 | – |
| CSc1ccc(C=NNC(=O)Cc2ccc(O)c(O)c2)cc1 [Compound 28, 2-(3,4-dihydroxyphenyl)-N'-(4-(methylthio)benzylidene)acetohydrazide] | – | 198 | – |

From paper PMC11102520, “Design, synthesis, molecular docking study, and α-glucosidase inhibitory evaluation of novel hydrazide–hydrazone derivatives of 3,4-dihydroxyphenylacetic acid” (Scientific Reports, 2024)
